In patent US9156860B2, “Boron-containing small molecules” (Anacor Pharmaceuticals, Inc., priority 2011, dated 2015):

Legend:
[1] = system: Dermacentor variabilis tick nymphs; assay: Efficacy against nymphal-stage American dog ticks on rats; format: in vivo
Procedure: Evaluations were conducted using a modified version of the assay as described in Gutierrez et al., J. Med. Entomol. 43(3): 526-532 (2006). This assay may be modified by simply using different tick species (the reference describes Amblyomma americanum ticks), such as Dermacentor variabilis or Rhipicephalus sanguineus ticks, as well as different life-stages (larval, nymphal or adult). Further, the reference describes using topical application methods, but oral, transdermal and subcutaneous injection routes of administration may be used.
In these studies, adult male or female rats, approximately 300 grams in size, were randomly assigned to a treatment group or a control (untreated negative control or fipronil positive control) group. Each group consisted of three (3) to five (5) rats. […] On Day 2, approximately forty-eight (48) hours after treatment, live and dead ticks were removed from animals and counted.
Live tick counts were transformed using the natural logarithm transformation plus one (Ln count+1); addition of one to each count served to adjust for counts that were zero. […] GM percent efficacy of treatments was calculated using the following formula:
Enantiomers were evaluated for activity against American dog tick (Dermacentor variabilis) nymphs on rats. […] On Day 2, approximately forty-eight (48) hours after treatment, live and dead ticks were removed from animals and counted. […]

[2] = system: Lone star tick larvae (Amblyomma americanum); assay: Larval immersion microassay against larval-stage Lone star ticks; conditions: for mortality at 300 µM: Amblyomma americanum, 24 h, read-out: activity (percent larval mortality)
Procedure: The larval immersion microassay was conducted as described in detail in White, et al., J. Med. Entomol. […] Compounds of the invention were formulated in dimethylsulfoxide (DMSO) to prepare a stock solution at a concentration of at least 10 mM. […] Approximately 30-50 Lone star tick larvae (Amblyomma americanum) were submerged into each well containing compounds. After a 30 minute immersion period, larvae were removed with a wide-bore pipette tip in 0.05 ml of fluid, dispensed into a commercial paper tissue biopsy bag which was sealed at the top with a plastic dialysis clip, inverted and allowed to air dry for 60 minutes. Bags containing larvae were then incubated at approximately 27 degrees Celsius and >90% relative humidity. After 24 hours, bags were opened, live and dead larvae were counted and percent larval mortality was calculated.
7 contains one chiral center, and is therefore a racemic mixture comprised of approximately 50% R- and 50% S-enantiomer. In vitro and surrogate animal (rat) studies were conducted to evaluate the biological activity of the R- and S-enantiomers of 7. For the in vitro study, larvae of the Lone star tick (Amblyomma americanum) were exposed to 17 (S-enantiomer) and 18 (R-enantiomer) using the larval immersion microassay at a concentration of no greater than 0.3 mM. Following exposure, larvae were removed, transferred to a tissue biopsy bag and incubated at approximately 27 degrees Celsius and >90% relative humidity. After 24 hours, biopsy bags were opened and the numbers of live and dead larvae were determined.

[3] = system: adult American dog tick (Dermacentor variabilis); assay: Example 5: efficacy against adult American dog tick infestations on dogs; format: in vivo
Procedure: (§1) The therapeutic (knockdown) and residual efficacy of 7 and 8, each administered orally at a point dose of either 25 mg/kg or 50 mg/kg bodyweight, was evaluated against adult tick (Dermacentor variabilis and Rhipicephalus sanguineus) infestations on dogs. Twenty (20) male and female beagle dogs were allocated to one of five treatment groups, four (4) dogs per group: Untreated control; 7, 25 mg/kg; 7, 50 mg/kg; 8, 25 mg/kg; and 8, 50 mg/kg. On Day −1, all dogs were infested with approximately 50 unfed, adult D. variabilis ticks. On Day 0, dogs were orally administered gelatin capsules containing either 7 or 8 (50% technical active, 47% microcrystalline cellulose and 3% croscarmellose sodium, w/w) so as to achieve the desired point dosages. Ticks were counted and classified on all dogs, but not removed, on Day 1 (approximately 24 hours after treatment). On Day 2, approximately 48 hours after treatment, ticks were counted, classified and removed. Dogs were re-infested with the same number of D. variabilis ticks on Days 5, 12 and 19 with corresponding 48 hour post-infestation tick counts on Days 7, 14 and 21. Dogs were infested with approximately 50 unfed, adult brown dog ticks (Rhipicephalus sanguineus; approximately 50% male and 50% female) on Days 15 and 28, with corresponding 48 hour post-infestation tick counts on Days 17 and 30. GM percent efficacy of treatments against both tick species was calculated using the following formula: […]

[4] = system: brown dog tick (Rhipicephalus sanguineus); assay: Example 5: efficacy against brown dog tick infestations on dogs; format: in vivo
Procedure: as §1

[5] = Tolerability of oral treatment in dogs; format: in vivo, beagle dogs
Procedure: The therapeutic (knockdown) and residual efficacy of 7, administered orally at a point dosages of 5 and 25 mg/kg bodyweight, was evaluated against adult American dog tick (D. variabilis) and cat flea (C. felis) infestations on dogs. Sixteen (16) male and female beagle dogs were allocated to one of four treatment groups: Untreated control group (n=4 dogs); 7, 5 mg/kg liquid oral dosage form (n=4 dogs); 7, 25 mg/kg liquid oral dosage form (n=4 dogs); and 7, 25 mg/kg solid oral dosage form. Liquid dosage forms were prepared by dissolving 7 in a solution of 55% polyethylene glycol-300, 35% propylene glycol and 10% water at 25 mg/ml. Solid oral dosage form was prepared by thoroughly mixing 7 with microcrystalline cellulose and croscarmellose sodium (50:47:3, w/w) and placing into size 00 gelatin capsules. On Day 0, all dogs were orally administered 7 at the prescribed point dosages. Twenty-four (24) hours before treatment (Day −1), all dogs were infested with approximately 50 unfed, adult-stage American dog ticks (D. variabilis; approximately 50% male and 50% female). On Day 2, approximately 48 hours after treatment, ticks were removed and counts were conducted to determine the number and life-status classification of ticks present on all dogs (normal, moribund or dead; attached or detached). For all groups, dogs were re-infested with approximately 50 unfed, adult D. variabilis ticks on Days 5 and 12, with tick classification, counts and removal on Days 7 and 14 (approximately 48 hours after each infestation). For negative control and 7 (25 mg/kg solid oral dosage form) groups, dogs were re-infested with approximately 50 unfed, adult D. variabilis ticks on Days 19 and 28, with tick classification, counts and removal on Days 21 and 30. Immediately following removal of ticks on Day 30, dogs in the negative control and 7 (25 mg/kg solid oral dosage form) groups were infested with approximately 100 unfed, adult cat fleas (C. felis). Flea counts were conducted approximately 48 hours later, on Day 32.
as §1
The efficacy of 7, administered orally at a point dose of 25 mg/kg bodyweight, was evaluated against adult tick (Dermacentor variabilis) infestations. Twelve (12) male and female beagle dogs were allocated to three treatment groups: Untreated, negative control A; 7 group B; and 7 group C (n=4 dogs per group). Dogs were infested with approximately 50 unfed, adult D. variabilis ticks on Days −1, 5, 12, 19 and 28. […]

[6] = Clinical signs / tolerability in rats; format: in vivo; conditions: oral ≦5 mg/kg, Example 8
[7] = system: adult American dog tick (Dermacentor variabilis); assay: Example 9: efficacy against adult American dog tick infestations on dogs; format: in vivo; conditions: 50 mg/kg oral
Procedure: (§2) The therapeutic (knockdown) and residual efficacy of 17, administered orally at a point dose of 50 mg/kg bodyweight, was evaluated against adult tick (Dermacentor variabilis and Rhipicephalus sanguineus) and adult cat flea (Ctenocephalides felis) infestations on dogs. Eight (8) male and female beagle dogs were allocated to either an untreated, negative control group or 17 group (n=4 dogs per group). Dogs were infested with approximately 50 unfed, adult D. variabilis ticks on Days −1, 5, 12, 19, and 28. On Day 0, dogs were orally administered gelatin capsules containing 17 (50% technical active, 47% microcrystalline cellulose and 3% croscarmellose sodium, w/w) at a point dose of 50 mg/kg. D. variabilis tick counts and classification were conducted on Day 1 (thumb count, approximately 24 hours after treatment) and Days 2, 7, 14, 21 and 30 (approximately 48 hours after treatment). Following removal of D. variabilis ticks on Day 30, all dogs were co-infested with approximately 50 unfed, adult brown dog ticks (R. sanguineus) and approximately 100 unfed, adult cat fleas (C. felis). Brown dog tick and cat flea counts were conducted on Day 32 (approximately 48 hours after infestation). GM percent efficacy of treatments against both tick species and fleas was calculated using the following formula: […]

[8] = system: brown dog tick (Rhipicephalus sanguineus); assay: Example 9: efficacy against brown dog tick infestations on dogs; format: in vivo; conditions: 50 mg/kg oral, Day 32
Procedure: as §2

[9] = system: cat flea (Ctenocephalides felis); assay: Example 9: efficacy against cat flea infestations on dogs; format: in vivo; conditions: 50 mg/kg oral, Day 32
Procedure: as §2

## N#Cc1nn(-c2c(Cl)cc(C(F)(F)F)cc2Cl)c(N)c1[S+]([O-])C(F)(F)F (stereo not shown) [Fipronil, reference compound]
[1]; positive control, oral 10 mg/kg bodyweight, all studies
  efficacy (% reduction in live tick counts): > 95%

## CC1(C)OB(O)c2ccc(C3=NOC(c4cc(Cl)c(F)c(Cl)c4)(C(F)(F)F)C3)cc21 (stereo not shown) [Compound 8, 5-(5-(3,5-dichloro-4-fluorophenyl)-5-(trifluoromethyl)-4,5-dihydroisoxazol-3-yl)-3,3-dimethyl-benzo[c][1,2]oxaborol-1(3H)-ol]
[2]
  mortality at 300 µM: ≥ 80%
[3]; 25 mg/kg oral capsule, Day 1
  % efficacy: (81.0) %
  Geometric mean group live tick count: 2.0
[3]; 25 mg/kg oral capsule, Day 2
  Geometric mean group live tick count: 0.0
[3]; 25 mg/kg oral capsule, Day 7
  Geometric mean group live tick count: 1.5
[3]; 25 mg/kg oral capsule, Day 14
  % efficacy: (85.0) %
  Geometric mean group live tick count: 2.5
[3]; 25 mg/kg oral capsule, Day 21
  % efficacy: (79.3) %
  Geometric mean group live tick count: 3.4
[3]; 50 mg/kg oral capsule, Day 1
  % efficacy: (80.9) %
  Geometric mean group live tick count: 2.0
[3]; 50 mg/kg oral capsule, Day 2
  Geometric mean group live tick count: 0.0
[3]; 50 mg/kg oral capsule, Day 7
  Geometric mean group live tick count: 0.6
[3]; 50 mg/kg oral capsule, Day 14
  % efficacy: (80.4) %
  Geometric mean group live tick count: 3.2
[3]; 50 mg/kg oral capsule, Day 21
  % efficacy: (75.1) %
  Geometric mean group live tick count: 4.0
[4]; 25 mg/kg oral capsule, Day 17
  % efficacy: (73.4) %
  Geometric mean group live tick count: 7.2
[4]; 50 mg/kg oral capsule, Day 17
  % efficacy: (80.2) %
  Geometric mean group live tick count: 5.4
[4]; 50 mg/kg oral capsule, Day 30
  % efficacy: (42.1) %
  Geometric mean group live tick count: 21.5
[5]; oral 25 or 50 mg/kg, Example 5
  tolerability: well tolerated

## CC1(C)OB(O)c2ccc(C3=NO[C@](c4cc(Cl)c(Cl)c(Cl)c4)(C(F)(F)F)C3)cc21 [Compound 18, (R)-3,3-Dimethyl-5-(5-(3,4,5-trichlorophenyl)-5-(trifluoromethyl)-4,5-dihydroisoxazol-3-yl)benzo[c][1,2]oxaborol-1(3H)-ol]
[2]; 0.3 mM, A. americanum larvae, counted after 24 hours
  In vitro activity at 0.3 mM: 0.0%
[1]; oral point doses of ≦5 mg/kg, D. variabilis nymphs, 48 hours after treatment, 5 mg/kg
  % Efficacy at Dose of ≦5 mg/kg: 10.7%
[6]
  tolerability: well tolerated

## CC1(C)OB(O)c2ccc(C3=NO[C@@](c4cc(Cl)c(Cl)c(Cl)c4)(C(F)(F)F)C3)cc21 [Compound 17, (S)-3,3-Dimethyl-5-(5-(3,4,5-trichlorophenyl)-5-(trifluoromethyl)-4,5-dihydroisoxazol-3-yl)benzo[c][1,2]oxaborol-1(3H)-ol]
[2]
  mortality at 300 µM: ≥ 80%
[6]
  tolerability: well tolerated
[7]; Day 1
  Geometric mean group live tick count: 0.7
[7]; Day 2
  Geometric mean group live tick count: 0.0
[7]; Day 7
  % efficacy: (100) %
  Geometric mean group live tick count: 0.0
[7]; Day 14
  % efficacy: (96.7) %
  Geometric mean group live tick count: 1.2
[7]; Day 21
  % efficacy: (100) %
  Geometric mean group live tick count: 0.0
[7]; Day 30
  Geometric mean group live tick count: 1.9
[7]; through Day 21
  residual efficacy: 97-100%
[8]
  Geometric mean group live tick count: 1.9
[9]
  Geometric mean group live flea count: 0.0
[5]; oral 50 mg/kg, Example 9
  tolerability: well tolerated
